The text below walks through data of patent publication US7348332B2, “(3,4-dihydro-quinazolin-2-yl)-indan-1-yl-amines” (Hoffmann-La Rochse Inc., priority 2005, dated 2008).

SMILES strings stand for the structures.

The target in this assay is T1, recombinant human 5-HT5A receptor (Homo sapiens, UniProt P47898).
T1 construct: expressed in transfected cells; host or cells: HEK-EBNA (Human Embryonic Kidney-EBNA) cells, transient cDNA expression; membranes
T1 sequence (P47898 whole entry): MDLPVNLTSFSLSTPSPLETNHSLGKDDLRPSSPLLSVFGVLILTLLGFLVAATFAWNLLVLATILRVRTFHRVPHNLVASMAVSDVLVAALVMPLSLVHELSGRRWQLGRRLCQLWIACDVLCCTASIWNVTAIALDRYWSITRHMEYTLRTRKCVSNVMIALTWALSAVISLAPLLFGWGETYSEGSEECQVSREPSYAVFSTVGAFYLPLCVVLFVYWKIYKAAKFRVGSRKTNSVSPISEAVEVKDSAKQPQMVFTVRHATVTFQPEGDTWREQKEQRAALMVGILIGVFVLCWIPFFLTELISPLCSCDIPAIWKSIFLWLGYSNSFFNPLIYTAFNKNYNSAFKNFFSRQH
Description: [3H]LSD radioligand binding assay, membranes from HEK-EBNA cells transiently expressing 5-HT5A receptors. Particulars: [3H]LSD approximately 1 nM; HEK-EBNA cell membranes; SPA beads; 120 min at room temperature; Ki from IC50 by Cheng-Prussoff equation. The procedure: A [^3H]LSD radioligand binding assay was used to determine the affinity of the compounds for the recombinant human 5-HT5A receptor, in membranes from transiently (cDNA) expressed 5-HT5A receptors in Human Embryonic Kidney-EBNA (HEK-EBNA) cells. Assay buffer consisted of Tris (50 mM) buffer containing 1 mM EGTA, 10 mM MgCl2 (pH 7.4) and 10 μM pargyline. The binding assay was carried out in 96-well-plates in the presence of [^3H]LSD (approximately 1 nM), approximately 2 μg/well of membrane protein, and 0.5 mg of Ysi-poly-1-lysine SPA beads in a final volume of 200 μl of buffer. Non-specific binding was defined using methiothepin 2 μM. Compounds were tested at 10 concentrations. All assays were conducted in duplicate and repeated at least two times. Assay plates were incubated for 120 min at room temperature before centrifugation. Bound ligand was determined using a Packard Topcount scintillation counter. IC50 values were calculated using a non-linear curve fitting program and Ki values calculated using the Cheng-Prussoff equation.
One may read the Ki as the equilibrium dissociation constant of an inhibitor or competing ligand from its target. On to `Clc1ccc2c(c1)C(c1ccccc1Cl)NC(NC1CCc3ccccc31)=N2` (stereo in doubt) [Example 22, [6-Chloro-4-(2-chloro-phenyl)-3,4-dihydro-quinazolin-2-yl]-(R)-indan-1-yl-amine], for which the Ki is 0.655 µM. `FC(F)(F)c1ccc2c(c1)N=C(NC1CCc3ccccc31)NC2` (centres unmarked) [Example 13, Indan-1-yl-(7-trifluoromethyl-3,4-dihydro-quinazolin-2-yl)-amine]: the Ki is 0.26 µM. Next, `c1ccc2c(c1)CC[C@@H]2NC1=Nc2ccccc2C(c2ccsc2)N1` (stereo partly drawn) [Example 24, (S)-Indan-1-yl-(4-thiophen-3-yl-3,4-dihydro-quinazolin-2-yl)-amine]: 0.293 µM. As for `Clc1ccc2c(c1)N=C(NC1CCc3ccccc31)NC2` (centres unmarked) [Example 12, (7-Chloro-3,4-dihydro-quinazolin-2-yl)-indan-1-yl-amine], the Ki worked out at 0.174 µM. As for `COc1cc2c(cc1OC)N=C(NC1CCc3ccccc31)NC2` (centres unmarked) [Example 16, (6,7-Dimethoxy-3,4-dihydro-quinazolin-2-yl)-indan-1-yl-amine], the Ki stood at 0.35 µM. Next, `c1ccc2c(c1)CC[C@H]2NC1=Nc2ccccc2C(c2ccsc2)N1` (stereo partly drawn) [Example 23, (R)-Indan-1-yl-(4-thiophen-3-yl-3,4-dihydro-quinazolin-2-yl)-amine]: 0.133 µM.

In the case of `c1ccc2c(c1)CNC(N[C@H]1CCc3ccccc31)=N2` [Example 17, (3,4-Dihydro-quinazolin-2-yl)-(S)-indan-1-yl-amine], the Ki came out at 0.35 µM. Regarding `Cc1noc(C)c1C1NC(N[C@@H]2CCc3ccccc32)=Nc2ccccc21` (stereo partly drawn) [Example 25, [4-(3,5-Dimethyl-isoxazol-4-yl)-3,4-dihydro-quinazolin-2-yl]-(R)-indan-1-yl-amine], the Ki was 0.863 µM.

Consider `Clc1ccc2c(c1)C(c1ccccc1Cl)NC(NC1CCc3ccccc31)=N2` (stereo in doubt) [Example 21, [6-Chloro-4-(2-chloro-phenyl)-3,4-dihydro-quinazolin-2-yl]-(S)-indan-1-yl-amine], for which the Ki came to 0.595 µM.

Take `Fc1cccc2c1CNC(NC1CCc3ccccc31)=N2` (centres unmarked) [Example 6, (5-Fluoro-3,4-dihydro-quinazolin-2-yl)-indan-1-yl-amine]: the Ki was determined as 0.048 µM.

As for `COc1ccc2c(c1)N=C(NC1CCc3ccccc31)NC2` (centres unmarked) [Example 15, Indan-1-yl-(7-methoxy-3,4-dihydro-quinazolin-2-yl)-amine], the Ki turned out to be 0.31 µM. Regarding `Cc1cccc2c1CNC(NC1CCc3ccccc31)=N2` (centres unmarked) [Example 8, Indan-1-yl-(5-methyl-3,4-dihydro-quinazolin-2-yl)-amine], the Ki came out at 0.055 µM.

On to `Clc1ccc2c(c1Cl)CNC(NC1CCc3ccccc31)=N2` (centres unmarked) [Example 5, (5,6-Dichloro-3,4-dihydro-quinazolin-2-yl)-indan-1-yl-amine], for which the Ki was found to be 0.039 µM. Consider `CC1NC(NC2CCc3ccccc32)=Nc2cc(Cl)c(Cl)cc21` (centres unmarked) [Example 10, (6,7-Dichloro-4-methyl-3,4-dihydro-quinazolin-2-yl)-indan-1-yl-amine], for which the Ki came out at 0.071 µM. Next, `Clc1ccc(Cl)c(C2NC(NC3CCc4ccccc43)=Nc3ccccc32)c1` (stereo in doubt) [Example 19, [4-(2,5-Dichloro-phenyl)-3,4-dihydro-quinazolin-2-yl]-(S)-indan-1-yl-amine]: 0.55 µM; `Clc1ccc(Cl)c(C2NC(NC3CCc4ccccc43)=Nc3ccccc32)c1` (stereo in doubt) [Example 20, [4-(2,5-Dichloro-phenyl)-3,4-dihydro-quinazolin-2-yl]-(R)-indan-1-yl-amine]: 0.55 µM; `c1ccc2c(c1)CNC(N[C@@H]1CCc3ccccc31)=N2` [Example 1, (3,4-Dihydro-quinazolin-2-yl)-(R)-indan-1-yl-amine]: 0.025 µM. Then `Cc1ccc2c(c1)CNC(NC1CCc3ccccc31)=N2` (centres unmarked) [Example 7, Indan-1-yl-(6-methyl-3,4-dihydro-quinazolin-2-yl)-amine], with 0.05 µM. Next, `Clc1ccc2c(c1)C(c1ccccc1)NC(NC1CCc3ccccc31)=N2` (centres unmarked) [Example 18, (6-Chloro-4-phenyl-3,4-dihydro-quinazolin-2-yl)-indan-1-yl-amine]: 0.41 µM. Regarding `c1ccc(C2NC(NC3CCc4ccccc43)=Nc3ccccc32)cc1` (centres unmarked) [Example 14, Indan-1-yl-(4-phenyl-3,4-dihydro-quinazolin-2-yl)-amine], the inhibition constant Ki is 0.31 µM. As for `Cc1cccc2c1N=C(NC1CCc3ccccc31)NC2` (centres unmarked) [Example 3, Indan-1-yl-(8-methyl-3,4-dihydro-quinazolin-2-yl)-amine], the Ki was 0.032 µM. Then `CC1NC(NC2CCc3ccccc32)=Nc2ccccc21` (centres unmarked) [Example 9, Indan-1-yl-(4-methyl-3,4-dihydro-quinazolin-2-yl)-amine], with 0.08 µM; and `Fc1ccc2c(c1)CNC(NC1CCc3ccccc31)=N2` (centres unmarked) [Example 4, (6-Fluoro-3,4-dihydro-quinazolin-2-yl)-indan-1-yl-amine], with 0.035 µM; and `Clc1cccc2c1CNC(NC1CCc3ccccc31)=N2` (centres unmarked) [Example 2, (5-Chloro-3,4-dihydro-quinazolin-2-yl)-indan-1-yl-amine], with 0.032 µM. As to `Cc1noc(C)c1C1NC(N[C@H]2CCc3ccccc32)=Nc2ccccc21` (stereo partly drawn) [Example 26, [4-(3,5-Dimethyl-isoxazol-4-yl)-3,4-dihydro-quinazolin-2-yl]-(S)-indan-1-yl-amine], the Ki was 1.2 µM.

In the case of `COc1ccc2c(c1)CNC(NC1CCc3ccccc31)=N2` (centres unmarked) [Example 11, Indan-1-yl-(6-methoxy-3,4-dihydro-quinazolin-2-yl)-amine], the Ki is 0.125 µM.
